US4780281A, “Method for assay of peroxidase enzyme or reducing substrate activity” (Wayne State University, priority 1985, dated 1988)
Each block holds one molecule with its values, some of them ahead of it.

What was measured:
[1] = target: T1, Prostaglandin H Synthase (Ovis aries, UniProt P05979); assay: Reducing substrate efficiency for PPHP reduction, conditions as for Table 1; format: biochemical; conditions: for Index of Efficiency of Reducing Substrates: Prostaglandin H synthase, under the conditions for Table 1
T1 sequence (P05979 25-600): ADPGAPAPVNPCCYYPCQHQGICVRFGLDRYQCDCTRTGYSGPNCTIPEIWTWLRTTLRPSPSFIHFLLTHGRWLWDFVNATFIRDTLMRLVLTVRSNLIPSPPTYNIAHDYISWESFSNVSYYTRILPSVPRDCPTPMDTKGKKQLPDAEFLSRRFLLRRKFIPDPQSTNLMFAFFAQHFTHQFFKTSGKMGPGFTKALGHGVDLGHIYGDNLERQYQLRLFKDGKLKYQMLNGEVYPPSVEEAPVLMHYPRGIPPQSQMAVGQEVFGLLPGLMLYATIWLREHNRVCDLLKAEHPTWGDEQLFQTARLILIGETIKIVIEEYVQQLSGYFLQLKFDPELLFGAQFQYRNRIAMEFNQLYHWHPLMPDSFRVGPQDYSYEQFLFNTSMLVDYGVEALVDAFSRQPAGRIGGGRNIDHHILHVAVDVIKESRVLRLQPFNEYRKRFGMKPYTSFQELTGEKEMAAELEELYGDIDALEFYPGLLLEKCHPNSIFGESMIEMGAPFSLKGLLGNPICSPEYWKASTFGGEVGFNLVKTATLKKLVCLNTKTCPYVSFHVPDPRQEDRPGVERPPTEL

[2] = target: T2, Horseradish peroxidase (HRP) (Armoracia rusticana, UniProt P00433); assay: Reducing substrate specificity assay (HRP-catalysed reduction of PPHP to PPA, HPLC); format: biochemical; conditions: 60 nM HRP, 200 microM reducing substrate; for Index = concentration PPA/(concentration PPA+concentration PPHP): 100 microM PPHP, 0.1 M potassium citrate pH 5.5, 0.2 mM Tween-20, 25° C., 6 minutes, triplicate; for reducing substrate quality for HRP (FIG. 1): pH 5.5
T2 construct: purchased Sigma Chemical Corporation Type VI
T2 sequence (P00433 31-338 limits assumed): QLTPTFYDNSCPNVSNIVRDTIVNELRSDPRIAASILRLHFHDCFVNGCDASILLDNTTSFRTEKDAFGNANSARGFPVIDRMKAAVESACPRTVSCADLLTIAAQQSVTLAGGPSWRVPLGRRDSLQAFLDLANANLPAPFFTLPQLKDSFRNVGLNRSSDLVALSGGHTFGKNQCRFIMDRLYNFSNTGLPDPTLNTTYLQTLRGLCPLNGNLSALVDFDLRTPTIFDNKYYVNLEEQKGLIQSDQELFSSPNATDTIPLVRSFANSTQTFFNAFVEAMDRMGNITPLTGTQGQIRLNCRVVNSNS
Experimental: Incubations were performed in triplicate with a 25° C. shaker bath in 16×150 mm disposable glass test tubes. 60 nM HRP was incubated at 25° C. in 0.1 M potassium citrate buffer, […] containing 0.2 mM Tween 20, with 100 microM PPHP and 200 microM potential reducing substrate. The index value is defined as, Index=concentration PPA/(concentration PPA+concentration PPHP). Most reducing substrates were prepared daily as 8 mM stocks in either water, methanol, or methanol:water (1:1 v/v). DPBF was dissolved in acetone. Uric acid was dissolved in DMSO. Epinephrine required titration with dilute hydrochloric acid prior to dissolution in methanol. Indoleacetic acid, tryptophan, cysteine, and methionine were titrated with dilute potassium hydroxide prior to dissolution in methanol:water (1:1 v/v).
For the data in Table 1 hereinafter, reducing substrates (50 microliters of 8 mM stocks--see Table 1 for preparation) were transferred into 1.9 ml of 0.1 M potassium citrate buffer, pH 5.5, containing 0.2 mM Tween-20 and allowed to thermally equilibrate for 10 minutes. HRP (24 microl of a 5 microM stock) was added to each trial and preincubated for three minutes prior to the addition of PPHP (25 microl of 8 mM stock in methanol). Incubations were stopped at 6 minutes by pouring mixtures onto Baker SPE System columns (3 ml octyldecylsilyl, from J. T. Baker & Co.). The columns were prepared prior to use by passing 3×3 ml aliquots of water through the columns with the Baker SPE vacuum system. At the stop time, an individual trial was poured onto the column and aspirated to near dryness. Each individual trial was set aside until the reminder of the trials were treated in the same manner. After all incubation trials were partitioned onto the SPE columns, each individual incubation tube was washed with 2 ml of 0.2 mM Tween 20 in distilled water and poured onto the corresponding SPE column. This Tween 20/water wash was aspirated to near dryness with vacuum. Analytes were eluted into 12×76 mm disposable glass test tubes with 2×1 ml aliquots of methanol (HPLC grade, Fisher Scientific Co.). The sample collection rack for the Baker 10 SPE System was modified to accommodate these 12 mm diameter tubes. The SPE columns were aspirated dry at this point and discarded. An internal chromatographic standard of p-nitrobenzyl alcohol (25 microl of 8 mM stock solution in methanol) was added to each methanol eluent, mixed by vortexing, and then clarified by filtration through a 0.45 micron nylon Swinney type filter (Rainin Instrument Corp.). The filtered eluents were used directly for chromatographic analysis.
The Initial incubation conditions were 0.1 M potassium citrate buffer, pH 5.5, with 0.2 mM Tween 20, 200 microM reducing substrate, 60 nM HRP and […] PPHP (structure 1).
Quantitation was determined by adding an internal standard (p-nitrobenzyl alcohol: annotated as I.S. on chromatograms) and ratioing peak areas. Chromatograms are 40 microliters injections onto a 5 micron Zorbax octylsilyl reverse-phase column (DuPont Instrument Corp.) with an isocratic elution mobile of 56% v/v methanol in water at 2 ml per min. U.V. monitoring was with a fixed 254 nm detector (Varian 5000, Varian Instrument Corp.). Vertical numbers are associated with peak retention times in minutes (the integrator used was a Vista 402 System, Varian Instruments).
Analyte concentrations were calculated by an internal standard method of calculation. This required individual incubation chromatograms to be compared to a calibration chromatogram generated by chromatographing a 40 microliter sample aliquot of a solution of PPHP as described under calculations.

[3] = substrate: Oc1ccccc1; assay: Steady-state kinetic assay (PPA production, SPE/HPLC); format: biochemical, horseradish; conditions: other: 2.5 nM HRP, 100 microM PPHP, pH 5.5, 4 minutes
Experimental: The incubations were terminated at 2, 4, and 8 minutes by pouring the incubations onto SPE columns as described in Methods. […] The data points are the average of triplicates. […] All buffers contained 0.2 mM Tween-20. Incubations were stopped at 4 minutes by pouring onto SPE columns as described in Methods. Each data point is the average of triplicates. […] Incubations were stopped at 4 minutes by pouring on SPE columns as described in Methods. PPA concentrations were converted into velocities by dividing by the incubation time and assuming linear steady-state velocities over the first 8 minutes (see FIG. 3). Five replicates of each phenol concentration were assayed. Km and Vmax were determined by linear regression analysis upon the non-averaged data points.
We designed the assays with 4 minute termination times converting either the concentration of PPHP or PPA into velocities.

[4] = substrate: OOCCC/C=C/c1ccccc1; assay: Spectrophotometric assay of Chance & Maehly for guaiacol oxidation; format: biochemical, horseradish; conditions: other: estimated
Excerpt: Apparent Km values for reducing substrates and enzymatic turnover numbers are readily determined by the steady-state kinetic assay.

Molecule: Nc1ccccc1 [Aniline, aniline]
Index = concentration PPA/(concentration PPA+concentration PPHP) [2]: 0.97 ± 0.01

Molecule: CSCC[C@H](N)C(=O)O [Methionine, d,1-methionine]
Index = concentration PPA/(concentration PPA+concentration PPHP) [2]: 0.05 ± 0.01

Molecule: CSc1ccc(/C=C2/C(C)=C(CC(=O)O)c3cc(F)ccc32)cc1 [Sulindac Sulfide]
Index of Efficiency of Reducing Substrates [1]: .96

Molecule: Oc1ccc(O)cc1 [Hydroquinone, hydroquinone]
Index = concentration PPA/(concentration PPA+concentration PPHP) [2]: 0.97 ± 0.01

Molecule: NC(=O)C1=CN([C@@H]2O[C@H](COP(=O)(O)OP(=O)(O)OC[C@H]3O[C@@H](n4cnc5c(N)ncnc54)[C@H](OP(=O)(O)O)[C@@H]3O)[C@@H](O)[C@H]2O)C=CC1 [NADPH, reduced nicotinamide adenine dinucleotide phosphate]
Index = concentration PPA/(concentration PPA+concentration PPHP) [2]: 0.06 ± 0.01

Molecule: COc1ccc2c(c1)c(C(C)C(=O)O)c(C)n2Cc1ccc(SC)cc1 (centres unmarked) [MK-410]
Index of Efficiency of Reducing Substrates [1]: .26

Molecule: Cc1ccc(Cl)c(Nc2ccccc2C(=O)O)c1Cl [Meclofenamate]
Index of Efficiency of Reducing Substrates [1]: .35

Molecule: O=C(O)Cc1ccccc1Nc1c(Cl)cccc1Cl [Diclofenac]
Index of Efficiency of Reducing Substrates [1]: .50

Molecule: N[C@@H](CCC(=O)N[C@@H](CS)C(=O)NCC(=O)O)C(=O)O [Glutathione, reduced glutathione]
Index = concentration PPA/(concentration PPA+concentration PPHP) [2]: 0.07 ± 0.01

Molecule: CC(=O)Oc1ccccc1C(=O)O [Aspirin]
Index of Efficiency of Reducing Substrates [1]: .04

Molecule: c1ccc2c(c1)cc1ccc3cccc4ccc2c1c34 [benzo[a]yrene]
reducing substrate for PPHP reduction by prostaglandin H synthase [1]: not reducing substrates

Molecule: COc1ccc(O)c(C(C)(C)C)c1 [BHA, butylated hydroxyanisole]
Index = concentration PPA/(concentration PPA+concentration PPHP) [2]: 0.56 ± 0.01
reducing substrate quality for HRP (FIG. 1) [2]: moderate

Molecule: CC(C(=O)O)c1ccc(-c2ccccc2)c(F)c1 (centres unmarked) [Flurbiprofen]
Index of Efficiency of Reducing Substrates [1]: .12

Molecule: CNC[C@H](O)c1ccc(O)c(O)c1 [Epinephrin, d,1-epinephrine]
Index = concentration PPA/(concentration PPA+concentration PPHP) [2]: 0.39 ± 0.01
Index of Efficiency of Reducing Substrates [1]: .92

Molecule: CC(C)Cc1ccc(C(C)C(=O)O)cc1 (centres unmarked) [Ibuprofen]
Index of Efficiency of Reducing Substrates [1]: .12

Molecule: O=C(O)c1ccccc1O [Salicylic Acid]
Index of Efficiency of Reducing Substrates [1]: .06

Molecule: OC1C=Cc2c(cc3ccc4cccc5ccc2c3c45)C1O (centres unmarked) [7,8-dihydroxy-7,8-dihydrobenzo[a]pyrene]
reducing substrate for PPHP reduction by prostaglandin H synthase [1]: not reducing substrates

Molecule: NC(=O)C1=CN([C@@H]2O[C@H](COP(=O)(O)OP(=O)(O)OC[C@H]3O[C@@H](n4cnc5c(N)ncnc54)[C@H](O)[C@@H]3O)[C@@H](O)[C@H]2O)C=CC1 [NADH, reduced nicotinamide adenine dinucleotide]
Index = concentration PPA/(concentration PPA+concentration PPHP) [2]: 0.05 ± 0.00

B1: HRP (Armoracia rusticana) (protein)
chain: T2 sequence (P00433 31-338 limits assumed)
notes: purchased Sigma Chemical Corporation Type VI
Km [3]: 252 µM
Km [4]: 18 µM

Second part, the molecule after the results:

Index of Efficiency of Reducing Substrates [1]: .71
Molecule: CCCCC1C(=O)N(c2ccccc2)N(c2ccc(O)cc2)C1=O (centres unmarked) [Oxyphenylbutazone]

Index = concentration PPA/(concentration PPA+concentration PPHP) [2]: 0.14 ± 0.01
Molecule: O=C(O)Cc1c[nH]c2ccccc12 [Indoleacetic Acid, indole-3-acetic acid]

Index of Efficiency of Reducing Substrates [1]: .50
Molecule: CSc1ccccc1 [Methylphenyl Sulfide]

Index of Efficiency of Reducing Substrates [1]: .23
Molecule: CCCCC1C(=O)N(c2ccccc2)N(c2ccccc2)C1=O [Phenylbutazone]

Index of Efficiency of Reducing Substrates [1]: .68
Molecule: O=C(O)c1ccccc1Nc1cccc(C(F)(F)F)c1 [Flufenamate]

Index of Efficiency of Reducing Substrates [1]: .25
Molecule: Cc1cc(NC(=O)C2=C(O)c3ccccc3S(=O)(=O)N2C)no1 [Isoxicam]

Index of Efficiency of Reducing Substrates [1]: .80
Molecule: CC1=NN(CCOc2ccc3ccccc3c2)C(=O)C1 [Nafazatrom]

Index = concentration PPA/(concentration PPA+concentration PPHP) [2]: 0.06 ± 0.01
reducing substrate for PPHP reduction by prostaglandin H synthase [1]: not reducing substrates
Molecule: c1ccc(-c2oc(-c3ccccc3)c3ccccc23)cc1 [DPBF, 1,3-diphenylisobenzofuran]

Index = concentration PPA/(concentration PPA+concentration PPHP) [2]: 0.06 ± 0.01
Molecule: O=C(O)CCCCC1CCSS1 (racemic) [Lipoic Acid, d,1-thiotic acid]

Index = concentration PPA/(concentration PPA+concentration PPHP) [2]: 0.19 ± 0.03
Molecule: Cc1cc(C(C)(C)C)c(O)c(C(C)(C)C)c1 [BHT, butylated hydroxytoluene]

Index of Efficiency of Reducing Substrates [1]: .34
Molecule: Cc1c(CC(=O)O)c2cc(O)ccc2n1C(=O)c1ccc(Cl)cc1 [5-Hydroxy-indomethacin]

Index = concentration PPA/(concentration PPA+concentration PPHP) [2]: 0.72 ± 0.02
Molecule: CCN(CC)C(=S)S [Diethyldithiocarbamate, diethyldithiocarbamic acid]

Index = concentration PPA/(concentration PPA+concentration PPHP) [2]: 0.13 ± 0.04
reducing substrate quality for HRP (FIG. 1) [2]: poor
Molecule: N[C@@H](Cc1c[nH]c2ccccc12)C(=O)O [Tryptophan, 1-tryptophan]

Index of Efficiency of Reducing Substrates [1]: .72
Molecule: CC(C)(C)c1cc(I)c(O)c(CN)c1 [MK-447]

Index = concentration PPA/(concentration PPA+concentration PPHP) [2]: 0.96 ± 0.00
Molecule: O=c1[nH]c(=O)c2[nH]c(=O)[nH]c2[nH]1 [Uric Acid, uric acid]

Index of Efficiency of Reducing Substrates [1]: .23
Molecule: CCCCC1C(=O)NN(c2ccccc2)C1=O (centres unmarked) [Monophenylbutazone]

Index = concentration PPA/(concentration PPA+concentration PPHP) [2]: 0.06 ± 0.01
Molecule: N[C@@H](CS)C(=O)O [Cysteine, 1-cysteine]

Index = concentration PPA/(concentration PPA+concentration PPHP) [2]: 0.97 ± 0.01
Molecule: COc1ccccc1O [Guaniacol, guaiacol]

Index = concentration PPA/(concentration PPA+concentration PPHP) [2]: 0.50 ± 0.00
Molecule: O=C1O[C@H]([C@@H](O)CO)C(O)=C1O [Ascorbic Acid, 1-ascorbic acid]

Index = concentration PPA/(concentration PPA+concentration PPHP) [2]: 0.97 ± 0.02
Molecule: [I-].[K+] [Iodide, potassium iodide]
